From patent US12239661B2, “Methods and compositions for treating undesired implanted tissue filler” (priority 2019, dated 2025)
Where two headings read alike, the source gives them in different places. Marks after values point to notes of the source that are not given here.

Legend:
[1] = X-ray CT of volume, mean density and 3D shape of Radiesse nodules and injected hyperosmotic solutions (Example 4); format: in vivo, Pig (Sus scrofa domesticus)
Protocol: Pigs are injected by SC route with Radiesse® filler without Lidocaine (Test item). One hour after the Radiesse® filler injection, selected different hyperosmotic solutions are injected by SC route into the dermal filler nodules. For two Radiesse® filler nodules per pig, no additional product is injected; these nodules are used as controls.
The evolution over time of the volume and mean density of the Radiesse® filler nodules with injection of the different solutions are assessed by CT-scanner at selected time points: on Day 0, at about 1 hour (h) and 15 minutes (min), 2 h and 4 h after the Radiesse® filler injection and solution injection, and then, on Day 1 (about 24 h after Radiesse® filler injection), Day 3, Day 7 and Day 15.
On Day 0, 4 pigs received ten (10) SC injections of Radiesse® dermal filler (P20WK-EE-01) of about 500 μl/nodule in the flank (ventral area) at T=0. One hour after Radiesse® dermal filler injections (T=1 h), about 1.5 ml of different hyperosmotic solutions (P20WK-EE-02 to P20WK-EE-05) were each injected into 8 Radiesse® filler nodules. Two Radiesse® filler nodules per animal were not injected with hyperosmotic solution and served as controls.
A total of 7 CT-scans were performed at 1 h 15±10 min, 2 h±15 min, 4 h±20 min, 1 day (24 h±1 h), 3, 7 and 15 days after injection of the dermal filler, as described in FIG. 9A.
On Day 0 (TO), 10 SC injections of test item P20WK-EE-01 (Radiesse® dermal filler) were performed in the ventral area (five nodules on each flank of the ventral area). For each SC nodule, a theoretical volume of 500 μL was administered. One hour (±5 min) after injection of dermal filler, SC injections of the different solutions (prepared on Day −3) were performed into 8 nodules of dermal filler. For each injection of solution, a theoretical volume of 1.5 mL was administered (see, e.g., injection scheme in Table 11).
In order to measure the volume, the mean density and to visualize the 3D shape of the dermal filler SC injected (in presence or absence of different hyperosmotic solutions), in vivo CT-scans were performed on Day 0: 1 h 15 (±10 min), 2 h (±15 min) and 4 h (±20 min), on Day 1 (24 h±1 h), Day 3, Day 7 and Day 15.
The CT acquisitions are analyzed with the software Avizo version 9.2.0. The objective of this analysis was to assess the dispersion over time of the Radiesse® dermal filler injected by SC route after injection of different hyperosmotic solutions.
To achieve this goal, the evolution of these parameters is observed over time: • the volume of each nodule (Radiesse® dermal filler and solution separately), • the mean density of each nodule (Radiesse® dermal filler and solution separately), • the 3D shape of each nodule by visualization of the 3D model of each nodule at each time point (Radiesse® dermal filler with or without solution separately). Segmentation:
An image segmentation is performed on each CT acquisition on the […] reconstruction. At first, a manual pre-segmentation is performed around each nodule in order to roughly isolate the voxels corresponding to Radiesse® dermal filler and hyperosmotic solutions and defined a Region of Interest (ROI). Secondly, an automatic segmentation is applied on the ROI previously defined using a global grey level thresholding procedure. […] Similarly, all the voxels having a grey level between these HU values are selected in a ROI and corresponds to the pure solution or solution containing some dispersed Radiesse® dermal filler (see, FIG. 10).
Then, a 3D model of these selected voxels (see, FIG. 11) is obtained allowing the calculation of the total volume (in mm^3) and the mean density (in HU) of the two defined compartments of each nodule of Pure Radiesse® dermal filler and of each solution containing or not containing dispersed Radiesse® dermal filler.
The volume (in mm^3) of the ROI of Radiesse® dermal filler and the solutions corresponding to each nodule and the mean density (in HU) of each nodule are calculated at each time point.

[2] = SC injection of 1.5 mL into filler nodule
Protocol: (§1) A total of 7 CT-scans were performed at 1 h 15, 2 h, 4 h, 1 day (24 h), 3, 7 and 14 days after injection of the dermal filler. The clinical state of each animal is assessed once a week by body weight measurement and clinical observations.
On day 14, one pig received one SC injection of Radiesse® filler in order to represented a Day 0 injection which is considered a positive control and then, all pigs were euthanized and each nodule with a part of the skin, along with negative control skin (skin samples without injection), were sampled in order to perform histological analysis of, for example, the inflammation, the necrosis and the dermal filler presence at the injection site.

[3] = In vivo CT of filler nodule volume, density and 3D shape after test solutions 0-8 (Example 3)
Protocol: One hour after filler injections (T=1 h), 1.5 mL of selected solutions (Table 5, solutions 0-8, test items, solution 0 is normal saline and not hyperosmotic) were injected each into 9 dermal filler nodules in the right flank (ventral area).
as §1
The 10 SC injections of dermal filler on Day 0 were performed in the ventral area, (five nodules on each flank of the ventral area) for each pig. For each SC nodule, a theoretical volume of 500 μl was administered. One hour (±5 min) after injection of dermal filler, SC injection of the different solutions (prepared the day before) were performed into nine (9) nodules of dermal. For each SC nodule, a theoretical volume of 1.5 mL of test solution was administered.
The X-ray computed tomography acquisitions were performed with the Computed Tomography Scanner BrightSpeed 16 (General Electric). In order to measure the volume and the mean density and to visualize the 3D shape of the dermal filler (Radiesse® filler with or without test solution) injected, in vivo CT-scans were performed on Day 0: 1 h 15 (±10 min), 2 h (±15 min) and 4 h (±20 min), on Day 1 (24 h+1 h), Day 3, Day 7 and Day 14.
During CT acquisition on Day 0, the pigs received an IM injection of anesthesia. The animals were maintained under anesthesia until the CT acquisition at T=2 h (2 h after dermal filler injection session). Between these CT acquisitions, the animals were under surveillance in the recovery room on a heating mat with fluidotherapy. At the end of the CT acquisition at T=2 h, the pigs received a tattoo around each injected site. During the CT acquisitions at T=4 h and on Days 1, 3, 7 and 14, pigs received an IM injection of anesthesia. For the CT-scans, animals were positioned in dorsal recumbency and acquisitions were centered on the injection sites. The parameters of the CT-scan are described in Table 5.
The CT acquisition was analyzed with the software Avizo version 9.2.0. The objective of this analysis was to assess the degradation over time of the dermal filler injected by SC route after injection of different test solutions.
An image segmentation processing was performed on each CT acquisition. First, a manual pre-segmentation was performed around each nodule in order to roughly isolate the voxels corresponding to dermal filler product, which defined a Region of Interest (ROI). Second, an automatic segmentation was applied on the previously defined ROI using a global grey level thresholding procedure.
On day 0, a farm pig received ten (10) SC injections of Radiesse® dermal filler 0.5 mL (ventral area) (10 nodules in total). One hour after filler injections (T=1 h), 1.5 mL of one of eight test hyperosmotic solutions (1-8 solutions, Table 5) was injected at an injection site. One injection site was untreated and one injection site was treated with normal saline (0.9% wt/v NaCl).

## O=C([O-])O.[Na+] [sol 14, Sodium hydrogen carbonate (sodium bicarbonate)]
[1]; Example 4 (Day 15), mean
  Change in Volume as percent of Injected Volume, Day 14/15: 1977%
[1]; Example 4, mean
  Change in Volume as percent of Injected Volume, Day 0 + 1 h 15: 1529* percent
  Change in Volume as percent of Injected Volume, Day 0 + 2 h: 1561%
  Change in Volume as percent of Injected Volume, Day 0 + 4 h: 1799%
  Change in Volume as percent of Injected Volume, Day 1: 2214%
  Change in Volume as percent of Injected Volume, Day 3: 2014%
  Change in Volume as percent of Injected Volume, Day 7: 2345%
[1]; between −100 HU and 250 HU
  average of the mean density of solution nodules, T=1 h 15: 25.7±5.5 HU
  average of the mean density of solution nodules, T=2 h: 14.1±7.1 HU
  mean volume of solution with potential dispersed Radiesse, Day 15: 1352.3±570.6 mm^3
  mean volume of solution with potential dispersed Radiesse, T=2 h: 2577.4±54.0 mm^3
  variation of solution volume on Day 15 compared to the injected volume on T=1 h: −1.4%
[1]; pure Radiesse >250 HU
  average of the mean density of nodules, Day 15: 441.3±62.9 HU

## [Ca+2].[Cl-].[Cl-] [sol 4, Calcium chloride]
[2]
  local tolerance at injection site: large wound on pigs
[2]; listed as CaCl2
  local tolerance at injection site: strong local irritating effect
[2]; listed as ClCl2
  local tolerance at injection site: severe skin necrosis
[3]; Day 14, CT 3D models
  nodule visibility / degradation of filler at end of study: largely degraded/dispersed the Radiesse® dermal filler
[3]; Example 3 (Day 14), mean
  Change in Volume as percent of Injected Volume, Day 14/15: 169.73* percent
[3]; Example 3, mean
  Change in Volume as percent of Injected Volume, Day 0 + 2 h: 162.46%
  Change in Volume as percent of Injected Volume, Day 0 + 4 h: 157.72%
  Change in Volume as percent of Injected Volume, Day 1: 145.42* percent
  Change in Volume as percent of Injected Volume, Day 3: 174.24* percent
  Change in Volume as percent of Injected Volume, Day 7: 175.91* percent
[3]; Example 3, mean, 1.5 mL solution into 500 μl nodule
  Change in Volume as percent of Injected Volume, Day 0 + 1 h 15: 170.60* percent
